Patent US20060069132A1, “Azolecarboxamide herbicides” (priority 2004, published 2006)

Assays:
woolly cupgrass = assay: Test C pre-/postemergence herbicide test; type: in vivo, Eriochloa villosa
How it was run: (§1)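 Pre- and postemergence application, solvent/surfactant formulation; post at 1- to 4-leaf stage (2–18 cm). Greenhouse 12–14 d. Visual rating vs controls, 0 = no effect, 100 = complete control.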

johnsongrass = assay: Test C pre-/postemergence herbicide test; type: in vivo, Sorghum halepense
How it was run: as §1

lambsquarters [1] = assay: Test C pre-/postemergence herbicide test; type: in vivo, Chenopodium album
How it was run: as §1

lambsquarters [2] = assay: Test B pre-/postemergence herbicide test; type: in vivo, Chenopodium album
How it was run: (§2)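 Herbicidal effect was judged by eye on a 0–100 scale after plants stood 13 to 15 days in the greenhouse following pre- or postemergence treatment with surfactant-containing formulations.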

cocklebur = assay: Test B pre-/postemergence herbicide test; type: in vivo, Xanthium strumarium
How it was run: as §2

Surinam grass = assay: Test C pre-/postemergence herbicide test; type: in vivo, Urochloa decumbens
How it was run: as §1

pigweed = assay: Test C pre-/postemergence herbicide test; type: in vivo, Amaranthus retroflexus
How it was run: as §1

[3] = 62 g ai/ha, preemergence, scale 0 to 100
[4] = 125 g ai/ha, scale 0 (no effect) to 100 (complete control), visual, 12 to 14 days, preemergence
[5] = Preemergence, 500 g ai/ha, scale 0 to 100, 0 no effect, 100 complete control
[6] = 125 g ai/ha, 0 = no effect, 100 = complete control, preemergence
[7] = 500 g ai/ha, visual rating 0-100, 0 no effect, 100 complete control, preemergence
[8] = postemergence, 125 g ai/ha, visual rating, scale 0 (no effect) to 100 (complete control)
[9] = postemergence, 500 g ai/ha, visual rating, scale 0 (no effect) to 100 (complete control)
[10] = 250 g ai/ha, scale 0-100, preemergence
[11] = 500 g ai/ha, scale 0 to 100 (0 no effect, 100 complete control), visual, 12 to 14 days, preemergence
[12] = 125 g ai/ha, 0 is no effect, 100 is complete control, preemergence
[13] = Postemergence, 500 g ai/ha, scale 0 (no effect) to 100 (complete control)
[14] = postemergence, 125 g ai/ha, scale 0 to 100
[15] = Postemergence, 250 g ai/ha, scale 0 to 100, 0 no effect, 100 complete control
[16] = postemergence, 62 g ai/ha, scale 0 to 100
[17] = Postemergence, 500 g ai/ha, visual rating after 13 to 15 days, scale 0 (no effect) to 100 (complete control)
[18] = preemergence, 125 g ai/ha, 0 to 100 scale, 0 is no effect, 100 is complete control

Structure (SMILES): CCc1nn(C(C)(C)C)cc1C(=O)Nc1cccc(C(C)=NO)c1 [Compound 188]
- Plant response rating, Cupgrass, Woolly (woolly cupgrass; [3]): 0
- Plant response rating, Cupgrass, Woolly (woolly cupgrass; [4]): 60
- Plant response rating, Cupgrass, Woolly (woolly cupgrass; 250 g ai/ha, scale 0 to 100 (0 no effect, 100 complete control), visual, 12 to 14 days, preemergence): 70
- Cupgrass, Woolly plant response rating (woolly cupgrass; [5]): 75
- Plant response rating, Johnsongrass (johnsongrass; [3]): 0
- Plant response rating, Johnsongrass (johnsongrass; [4]): 20
- Johnsongrass plant response rating (johnsongrass; [5]): 75
- Plant response rating, Lambsquarters (lambsquarters [1]; [3]): 95
- Plant response rating, Lambsquarters (lambsquarters [1]; [4]): 100
- Lambsquarters plant response rating (lambsquarters [1]; [5]): 100
- Lambsquarters plant response rating (0 to 100 scale) (lambsquarters [2]; [6]): 90
- Plant response rating, Lambsquarters (lambsquarters [2]; [7]): 100
- Lambsquarters plant response rating (lambsquarters [2]; [8]): 60
- Lambsquarters plant response rating (lambsquarters [2]; [9]): 70
- Cocklebur plant response rating (0 to 100 scale) (cocklebur; [6]): 0
- Plant response rating, Cocklebur (cocklebur; [7]): 0
- Cocklebur plant response rating (cocklebur; [8]): 20
- Cocklebur plant response rating (cocklebur; [9]): 90
- Plant response rating, Surinam Grass (Surinam grass; [3]): 20
- Plant response rating, Surinam Grass (Surinam grass; [4]): 30
- Surinam Grass plant response rating (Surinam grass; [5]): 80
- Plant response rating, Pigweed (pigweed; [3]): 95
- Plant response rating, Pigweed (pigweed; [4]): 95
- Pigweed plant response rating (pigweed; [5]): 100

Structure (SMILES): CCN(CC)C(=O)c1cccc(NC(=O)c2nn(C(C)(C)C)nc2C)c1 [Compound 418]
- Plant response rating, Cupgrass, Woolly (woolly cupgrass; [3]): 0
- Plant response rating (0 = no effect, 100 = complete control), Cupgrass, Woolly (woolly cupgrass; 125 g ai/ha, preemergence): 0
- Plant response rating, Cupgrass, Woolly (woolly cupgrass; [10]): 10
- Plant response rating, Cupgrass, Woolly (woolly cupgrass; [11]): 95
- Plant response rating, Johnsongrass (johnsongrass; [3]): 95
- Plant response rating (0 = no effect, 100 = complete control), Johnsongrass (johnsongrass; 125 g ai/ha, preemergence): 95
- Plant response rating, Johnsongrass (johnsongrass; [10]): 95
- Plant response rating, Johnsongrass (johnsongrass; [11]): 95
- Plant response rating, Lambsquarters (lambsquarters [1]; [3]): 95
- Plant response rating (0 = no effect, 100 = complete control), Lambsquarters (lambsquarters [1]; 125 g ai/ha, preemergence): 100
- Plant response rating, Lambsquarters (lambsquarters [1]; [10]): 100
- Plant response rating, Lambsquarters (lambsquarters [1]; [11]): 100
- Plant response rating (0 to 100 scale), Lambsquarters (lambsquarters [2]; [12]): 100
- Lambsquarters plant response rating (lambsquarters [2]; [13]): 90
- Lambsquarters plant response rating (lambsquarters [2]; [14]): 60
- Plant response rating (0 to 100 scale), Cocklebur (cocklebur; [12]): 0
- Cocklebur plant response rating (cocklebur; [13]): 30
- Cocklebur plant response rating (cocklebur; [14]): 20
- Plant response rating, Surinam Grass (Surinam grass; [3]): 50
- Plant response rating (0 = no effect, 100 = complete control), Surinam Grass (Surinam grass; 125 g ai/ha, preemergence): 85
- Plant response rating, Surinam Grass (Surinam grass; [11]): 100
- Plant response rating, Pigweed (pigweed; [3]): 100
- Plant response rating (0 = no effect, 100 = complete control), Pigweed (pigweed; 125 g ai/ha, preemergence): 100
- Plant response rating, Pigweed (pigweed; [11]): 100

Structure (SMILES): CCn1nc(C(C)(C)C)cc1C(=O)Nc1cccc(C(=O)OC)c1 [Compound 81]
- Plant response rating, Cupgrass, Woolly (woolly cupgrass; [15]): 5
- Plant response rating, Cupgrass, Woolly (woolly cupgrass; [14]): 5
- Plant response rating, Cupgrass, Woolly (woolly cupgrass; [16]): 5
- Plant response rating, Johnsongrass (johnsongrass; [15]): 5
- Plant response rating, Johnsongrass (johnsongrass; [14]): 0
- Plant response rating, Johnsongrass (johnsongrass; [16]): 0
- Plant response rating, Lambsquarters (lambsquarters [1]; [15]): 5
- Plant response rating, Lambsquarters (lambsquarters [1]; [14]): 5
- Plant response rating, Lambsquarters (lambsquarters [1]; [16]): 5
- Plant response rating, Lambsquarters (lambsquarters [2]; [17]): 50
- Lambsquarters plant response rating (lambsquarters [2]; [8]): 0
- Plant response rating, Lambsquarters (lambsquarters [2]; [18]): 0
- Plant response rating, Cocklebur (cocklebur; [17]): 90
- Cocklebur plant response rating (cocklebur; Preemergence, 500 g ai/ha, scale 0 to 100): 0
- Cocklebur plant response rating (cocklebur; [8]): 70
- Plant response rating, Cocklebur (cocklebur; [18]): 0
- Plant response rating, Surinam Grass (Surinam grass; [15]): 80
- Plant response rating, Surinam Grass (Surinam grass; [14]): 50
- Plant response rating, Surinam Grass (Surinam grass; [16]): 50
- Plant response rating, Pigweed (pigweed; [15]): 40
- Plant response rating, Pigweed (pigweed; [14]): 10
- Plant response rating, Pigweed (pigweed; [16]): 5
